In patent US20080161306A1, “Pyrrole Derivatives as Dna Gyrase and Topoisomerase Inhibitors” (priority 2005, published 2008):
In brackets after ≈: the same amount, converted by molar mass. Read-outs that look alike come from different tables or passages of the source.

What was measured:
Type in all cases: cell-based
Streptococcus pneumoniae = test: Bacterial susceptibility testing in liquid media (MIC), Streptococcus pneumoniae; settings: lowest concentration reducing growth by 80% or more, 37 degrees C., 24 hrs; for MIC: Streptococcus pneumoniae
Description: (§1) Compounds were tested for antimicrobial activity by susceptibility testing in liquid media. Compounds were dissolved in dimethylsulfoxide and tested in 10 doubling dilutions in the susceptibility assays. The organisms used in the assay were grown overnight on suitable agar media and then suspended in a liquid medium appropriate for the growth of the organism. The suspension was a 0.5 McFarland and a further 1 in 10 dilution was made into the same liquid medium to prepare the final organism suspension in 100 μL. Plates were incubated under appropriate conditions at 37 degrees C. for 24 hrs prior to reading. The Minimum Inhibitory Concentration was determined as the lowest drug concentration able to reduce growth by 80% or more.

HIN446 = test: Bacterial susceptibility testing in liquid media (MIC), HIN446; settings: strain HIN446; lowest concentration reducing growth by 80% or more; 37 degrees C., 24 hrs
Description: as §1

SAU516 = test: Bacterial susceptibility testing in liquid media (MIC), SAU516; settings: strain SAU516; lowest concentration reducing growth by 80% or more; 37 degrees C., 24 hrs
Description: as §1

[1] = strain SPN548, read-out: MIC SPN548

Row | SMILES | MIC SPN548 (Streptococcus pneumoniae; strain SPN548) [µg/mL] | MIC HIN446 (HIN446) [µg/mL] | MIC SAU516 (SAU516) [µg/mL] | MIC (Streptococcus pneumoniae; [1]) [µg/mL] | MIC (HIN446) [µg/mL] | MIC (SAU516) [µg/mL] | MIC (Streptococcus pneumoniae; read-out: MIC against Streptococcus pneumoniae) [µg/mL]
1 | CO[C@@H]1C=C(c2cccc(C(=O)O)c2)CC[C@@H]1NC(=O)c1[nH]c(C)c(Cl)c1Cl (relative stereo) [Example 11, 3-((3,4-Cis)-4-{[(3,4-Dichloro-5-methyl-1H-pyrrol-2-yl)carbonyl]amino}-3-methoxycyclohex-1-en-1-yl)benzoic acid] | 0.13 (≈ 0.307 µM) | 2 (≈ 4.72 µM) | 0.5 (≈ 1.18 µM) |  |  |  | 
2 | Cc1[nH]c(C(=O)N[C@H]2CC[C@H](c3cccc(C(=O)O)c3)CC2)c(Cl)c1Cl [Example 5, trans-3-(4-{[(3,4-Dichloro-5-methyl-1H-pyrrol-2-yl)carbonyl]amino}cyclohexyl)benzoic acid] |  |  |  | 4 (≈ 10.1 µM) | 16 (≈ 40.5 µM) | 4 (≈ 10.1 µM) | 
3 | Cc1[nH]c(C(=O)NC2CC=C(c3cccc(C(=O)O)c3)CC2)c(Cl)c1Cl (stereo not shown) [Example 16, 5-(4-{[(3,4-Dichloro-5-methyl-1H-pyrrol-2-yl)carbonyl]amino}cyclohex-1-en-1-yl)benzoic acid] |  |  |  | 1 (≈ 2.54 µM) | 4 (≈ 10.2 µM) | 2 (≈ 5.09 µM) | 1 (≈ 2.54 µM)
